Reference: ChEMBL document CHEMBL5143571, “Design, synthesis and anti-breast cancer evaluation of biaryl pyridine analogues as potent RSK inhibitors” (Bioorg Med Chem Lett, 2022)
Activity calls are given as the source filed them. The rule behind the calls is not given here.

What was measured:
[1] = system: HCC1806; assay: Inhibition of RSK in human HCC1806 cells assessed as reduction in YB-1 phosphorylation at Ser102 residue at 5 uM incubated for 12 hrs by western blot analysis; type: cell-based
[2] = system: HCC1806; assay: Anti-tumor activity against human HCC1806 cells assessed as inhibition of cell proliferation; type: functional, cell-based

| Compound | inhibition [1] | Activity [2] |
| --- | --- | --- |
| CN1CCN(c2ccc(-c3ccncc3-c3cc(F)c(O)c(F)c3)cc2)CC1 | Active | Active |
| O=Cc1ccc(-c2ccncc2-c2ccc(OCc3ccccc3)c(OCc3ccccc3)c2)cc1 | Active |  |
| Cc1cc(C)cc(-c2ccncc2-c2ccc(O)c(O)c2)c1 | Active |  |
| Cc1ccc(-c2ccncc2-c2ccc(O)c(O)c2)c2ccccc12 | Active | Active |
| Clc1ccc(-c2ccncc2-c2ccc(OCc3ccccc3)c(NCc3ccccc3)c2)cc1 | Active |  |
